The results in this text go back to US10463681B2, “Combination therapy for skin disorders” (M. Alphabet 1, LLC, priority 2010, dated 2019).

Common to all, as to assay type: in vivo, human
For data set [1], the system named is comedones and nodular and inflammatory lesions (acne in patients). Briefly: Placebo-controlled study in acne patients: counts of comedones and nodular and inflammatory lesions on the face. Here is the method: (§1) Thirty-five patients (13-55 years of age) were enrolled in a placebo-controlled study. Twenty-seven patients were treated with oral administration of a capsule containing the ingredients of Formula 1 and eight patients were treated with a placebo capsule containing only doxycycline hyclate (50 mg). Patients received Formula 1 or placebo twice daily for twelve weeks. The number of comedones (“blackheads”) and nodular and inflammatory lesions (>2 mm in diameter) were counted on the face of each patient at baseline and at two weeks, six weeks and twelve weeks post-treatment.
The results are shown as the change at baseline and the percent change from baseline for each outcome measure after twelve weeks of treatment. Data are reported as mean values (±standard error of the mean, SEM) for each outcome measure. The results for ‘total lesions’ includes both comedones and inflammatory and nodular lesions.

Data set [2] relates to inflammatory and nodular lesions and comedones (acne in patients). The experiment in a line: Investigator Global Assessment (IGA) score of the appearance of inflammatory and nodular lesions and comedones. The settings on record: score of 1 to 10, 10 indicating the most improvement. Here is the method: as §1
Next, an Investigator Global Assessment (IGA) score measuring the improvement of the appearance of inflammatory and nodular lesions and comedones was determined for each patient at baseline and 2 weeks and 6 weeks post-treatment. For this assessment the investigators were asked to evaluate whether their patient's lesions and comedones improved using a score of 1 to 10 with 10 indicating the most improvement.

For data set [3], the system named is porphyrins, a measure of bacteria in pores. Briefly: Visia complexion analysis: average number of porphyrins. Here is the method:
Thirty-five patients (13-55 years of age) were enrolled in a placebo-controlled study. Twenty-seven patients were treated with oral administration of a capsule containing the ingredients of Formula 1 and eight patients were treated with a placebo capsule containing only doxycycline hyclate (50 mg). Patients received Formula 1 or placebo twice daily for twelve weeks. The number of comedones (“blackheads”) and nodular and inflammatory lesions (>2 mm in diameter) were counted on the face of each patient at baseline and at two weeks, six weeks and twelve weeks post-treatment. […] Lastly, the Visia™ complexion analysis system was used to assess the average number of porphyrins, a measure of bacteria in pores, in each patient.

Data set [4] relates to patients. The experiment in a line: Untoward effects in the placebo-controlled patient study. To be noted: twice daily for twelve weeks, oral capsule. As to the method: as §1

With `C[C@H]1c2cccc(O)c2C(O)=C2C(=O)[C@]3(O)C(O)=C(C(N)=O)C(=O)[C@@H](N(C)C)[C@@H]3[C@@H](O)[C@@H]21` [Placebo, doxycycline hyclate], in data set [1] (12 weeks vs baseline), the “Total Comedones, Change from baseline, %” value is recorded as −27.4%; the “Total Inflammatory and Nodular Lesions, Change from baseline, %” value is given as −50.9%; the “Total Lesions, Change from baseline, %” value was −35.6%. Moreover, the “reduction of the total number of lesions (comedones and inflammatory and nodular lesions)” value in data set [1] (after twelve weeks of treatment) was determined as 35.6%. For the same molecule, the “reduction of the average number of comedones at twelve weeks compared to baseline” value in data set [1] (twelve weeks vs baseline) turned out to be 27.4%. In data set [1] (week 2), the “average number of comedones, week 2” value worked out at 29.0. For the same molecule, the “average number of comedones, week 6” value in data set [1] (week 6) came to 11.8. Also, in data set [2] (baseline), the “IGA score, baseline” value is 2.3. In addition, in data set [2] (six weeks), the “IGA score, six weeks” value is given as 2.5. The “Por (BL), average number of porphyrins” value in data set [3] (baseline) came out at 31.6. For the same molecule, the “Por (W2), average number of porphyrins” value in data set [3] (week 2) was determined as 25.8. Further, the “Por (W6), average number of porphyrins” value in data set [3] (week 6) is listed as 15.7. The “Por (W12), average number of porphyrins” value in data set [3] (week 12) amounted to 35.5. Also, in data set [4], the serious untoward effects result is on record as “No serious untoward effects”.
